Reference: patent US20230338336A1, “METHODS OF TREATING CONDITIONS RELATED TO THE S1P1 RECEPTOR” (Arena Pharmaceuticals, Inc., priority 2020, published 2023)

Assays:
[1] = system: human full thickness scalp skin / hair follicles; test: Human full thickness scalp skin model, AA-like inflammatory environment, with and without IFNγ (ex vivo); format: cell-based
Protocol: To evaluate the effects of Compound 1 on hair follicle physiology and pathology in an AA-like inflammatory environment, a human full thickness scalp skin model was used. Scalp biopsies from two healthy donors were cultured ex vivo and treated with tofacitinib (400 nM) and Compound 1 (10 nM, 100 nM, 1000 nM) in the presence and absence of IFNγ, a key pathological cytokine involved in AA development. 5 mm skin cubes with hair were acquired from a donor (Donor 1) and a donor (Donor 2). Ten groups were tested with one skin punch per group: 1. Vehicle (DMSO control) 2. Tofacitinib (400 nM), 3. 10 nM Compound 1, 4. 100 nM Compound 1 5. 1 μM Compound 1, 6. Vehicle (DMSO control)+100 IU IFNγ, 7. Tofacitinib (400 nM)+100 IU IFNγ, 8. 10 nM Compound 1+100 IU IFNγ, 9. 100 nM Compound 1+100 IU IFNγ 10. 1 μM Compound 1+100 IU IFNγ. On Day 0, isolation of 10×6mm punches with hair was performed. On Days 1, 3, and 5 the medium was changed and treatment with groups 1-10 occurred. Days 2 and 4 were rest days. On Day 6, the culture was closed and embedded in OCT Compound for further microscopic analysis.

[2] = Safety and tolerability in clinical studies (Phase 1, healthy adult subjects); format: in vivo, human; details: approximately 281 adult subjects, various doses; single doses up to 5 mg, repeated doses up to 4 mg QD
Protocol: (§1) Compound 1, or a pharmaceutically acceptable salt, solvate, or hydrate thereof, is an orally administered, selective, synthetic sphingosine 1-phosphate (S1P) receptor 1, 4, 5 modulator. […] Its safety and tolerability have been evaluated in Phase 1 studies with healthy adult subjects at single doses up to 5 mg and repeated doses up to 4 mg once daily (QD).

[3] = system: microdissected human scalp hair follicles (HF); test: Hair follicle organ culture model, non-inflammatory condition (ex vivo); format: cell-based
Protocol: A hair follicle organ culture model was used to analyze the direct effects of Compound 1 on HF physiology in a non-inflammatory condition. Human full thickness scalp skin from four healthy donors was cultured ex vivo and treated in four groups with 11 HF's per groups: 1. vehicle (DMSO control), 2. 10 nM Compound 1, 3. 100 nM Compound 1, 4. 1 μM Compound 1. Before treatment began, […] full length microdissected HF's were isolated, pictures and length measurements were taken of the HF's, and the HF's were cultured in WCM. On Days 1, 3, and 5 pictures of HF elongation were taken, the medium was changed, and treatment in groups 1-4 occurred. Days 2 and 4 were rest days. Additionally, on Day 2 three HF's per group were frozen for RNAseq twenty-four hours after the previous day's treatment. On Day 6, pictures were taken of the HF elongation, the culture was closed, and 8 HF's per group were embedded in optimal cutting temperature compound (OCT compound) for further microscopic immunohistological analysis.

[4] = Phase 2 dose-ranging study in UC patients and open-label extension; format: in vivo, human; details: UC patients
Protocol: as §1

MICA expression (stress signal) ([3]; 100 nM, anagen and catagen HFs combined and anagen HFs alone (FIG. 9)): significantly reduced
SMILES: O=C(O)C[C@H]1CCc2c1[nH]c1ccc(OCc3ccc(C4CCCC4)c(C(F)(F)F)c3)cc21 [Compound 1, (R)-2-(7-(4-cyclopentyl-3-(trifluoromethyl)benzyloxy)-1,2,3,4-tetrahydrocyclopenta[b]indol-3-yl)acetic acid]
IFNγ-mediated MHC-I up-regulation in the dermal cup of the hair follicle ([1]; +100 IU IFNγ (FIG. 11)): prevented
Hair cycle staging / hair cycle score (anagen) ([1]; Donor 1, without IFNγ (FIG. 10)): tendentially prolonged anagen
Increase of CD8-S1P1+ cells showing lymphocytic morphology ([1]; Donor 2 (FIG. 12)): prevented
Increase of perifollicular CD8+ cells showing lymphocytic morphology ([1]; Donor 2 (FIG. 12)): prevented
Safety and tolerability [2]: safe and well-tolerated
Hair cycle staging / hair cycle score (anagen phase) ([3]; 10 nM and 100 nM, 6-day HF organ culture, vs vehicle (FIG. 7)): tendentially prolonged the anagen phase
RNAseq: genes involved in hair keratinization ([3]; 10 nm and 100 nm groups, HFs frozen 24 h after treatment): significant up-regulation
MHC class I (MHC-I) expression in dermal cup, germinative hair matrix, outer root sheath ([3]; anagen and catagen HFs combined and anagen HFs alone (FIGS. 8a, 8b)): no change
Endoscopic and symptomatic improvements versus placebo ([4]; 2 mg QD for 12 weeks): clinically meaningful and statistically significant
Duration of beneficial effects in open-label extension study ([4]; up to 46 weeks): Sustained beneficial effects
